Experimental findings from US7741350B1 (Cara Therapeutics, Inc., priority 2009, dated 2010) are described below.

Assay [1] concerns the target human CB1 receptor (hCB1) (Homo sapiens, UniProt P21554). Description: cAMP assay at human CB1 receptor. The settings on record: hCB1R; maximum measurable range 30 μM; read-out: EC50 (Potency at Human CB1 determined by cAMP Assay). It is filed as cell-based. The method, boiled down: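 Changes in intracellular cAMP measured by TR-FRET (665/615 nm) in forskolin-stimulated cells; cAMP read from a concurrent standard curve. Values normalised between forskolin and forskolin plus 1 μM CP55,940 wells. EC50 and intrinsic activity relative to CP55,940 from four-parameter nonlinear regression.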

In assay [2] the target is human CB2 receptor (hCB2) (Homo sapiens, UniProt P34972). Description: cAMP assay at human CB2 receptor. The settings on record: EC50 (Potency at Human CB2 determined by cAMP Assay), hCB2R; maximum measurable range 30 μM. It is filed as cell-based. The method in brief: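 Values expressed as percent of the window between forskolin-stimulated wells and forskolin plus 1 μM CP55,940 wells.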
On the technique in general: cAMP levels reflect the balance of adenylyl cyclase and phosphodiesterase activity.

Assay [3] concerns Male ICR mice. Description: Inhibition of acetic acid-induced writhing in mice. The assay is classed as in vivo, mouse. The settings on record: dose of 10 mg/kg, subcutaneous 30 min before acetic acid. An excerpt:
12: 525-562; Ramabadran and Bansinath (1986) Pharm. Res. 3: 263-270]. Intraperitoneal administration of dilute acetic acid solution causes a writhing behavior in mice. A writhe is defined as a contraction of the abdominal muscles accompanied by an extension of the forelimbs and elongation of the body. The number of writhes observed in the presence and absence of test compounds is counted to determine the analgesic activity of the compounds.
Male ICR mice, 20-40 grams in weight, were weighed and placed in individual observation chambers (usually a 4 L beaker) with a fine layer of rodent bedding at the bottom. To determine the activity and potency of test compounds, different doses of the compound solution or vehicle were injected subcutaneously in the back of the neck 30 minutes prior to administration of acetic acid solution. After administration of the compound or vehicle control, mice were returned to their individual observation chambers awaiting the intraperitoneal administration of acetic acid solution.
Thirty minutes later, 10 ml/kg of a 0.6% (v/v) acetic acid solution was then injected into the right lower quadrant of the abdomen. Immediately after the injection, the mouse was returned to its observation chamber and the recording of the number of writhes is begun immediately. The number of writhes was counted over a 15-min period starting from the time of acetic acid injection. Raw data were analyzed using a one-way ANOVA followed by Dunnett's post-tests.
For dose-response analysis, raw data were converted to % maximum possible effect (% MPE) using the formula: % MPE=((Wc−Wv)/(0−Wv))*100, where Wc is the number of writhes in compound-treated mice and Wv is the mean number of writhes in vehicle-treated mice. The dose which elicited 50% attenuation of hypersensitivity (ED50) can be determined using linear regression analysis. (Tallarida & Murray, 1987).
For orientation: Writhing tests count abdominal constrictions after an irritant is injected.

Each structure is given as a SMILES string.

Chain of human CB2 receptor (hCB2) (P34972 whole entry): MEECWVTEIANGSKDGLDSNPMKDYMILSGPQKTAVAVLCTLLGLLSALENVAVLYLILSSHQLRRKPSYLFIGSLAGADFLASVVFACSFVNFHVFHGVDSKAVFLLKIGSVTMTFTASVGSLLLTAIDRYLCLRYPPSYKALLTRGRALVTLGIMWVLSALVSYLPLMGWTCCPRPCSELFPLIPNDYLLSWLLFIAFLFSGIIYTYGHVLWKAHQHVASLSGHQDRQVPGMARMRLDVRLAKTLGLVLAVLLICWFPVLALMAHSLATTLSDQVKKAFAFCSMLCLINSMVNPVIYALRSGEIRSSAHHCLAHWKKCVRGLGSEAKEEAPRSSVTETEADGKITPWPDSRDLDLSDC
Chain of human CB1 receptor (hCB1) (P21554 whole entry): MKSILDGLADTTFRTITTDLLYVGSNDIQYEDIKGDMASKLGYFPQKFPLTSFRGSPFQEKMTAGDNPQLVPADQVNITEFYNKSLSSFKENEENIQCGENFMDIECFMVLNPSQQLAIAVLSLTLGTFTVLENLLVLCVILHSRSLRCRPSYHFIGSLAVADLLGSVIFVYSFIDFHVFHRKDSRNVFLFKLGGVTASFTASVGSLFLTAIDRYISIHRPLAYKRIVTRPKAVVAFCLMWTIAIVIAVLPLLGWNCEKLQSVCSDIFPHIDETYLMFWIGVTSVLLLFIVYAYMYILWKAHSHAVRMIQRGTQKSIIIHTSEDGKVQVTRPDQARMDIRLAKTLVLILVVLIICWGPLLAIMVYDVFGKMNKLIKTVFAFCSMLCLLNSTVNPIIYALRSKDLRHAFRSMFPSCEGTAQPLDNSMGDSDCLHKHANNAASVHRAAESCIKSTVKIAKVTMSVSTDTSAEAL

For orientation: EC50 means the concentration needed to bring the measured effect to its halfway point. In the case of `CC(C)(C)[C@H](NC(=O)n1nc(-c2cc(F)c(F)cc2F)c2c1CCOC2)C(=O)NCCO` [Compound 35, (S)—N-(1-(2-hydroxyethylamino)-3,3-dimethyl-1-oxobutan-2-yl)-3-(2,4,5-trifluorophenyl)-6,7-dihydropyrano[4,3-c]pyrazole-1(4H)-carboxamide], the 50% effective concentration (EC50) in assay [1] and in assay [2] was less than 1 µM in each case. Also, the “reversal of the mechanical hyperalgesia induced by the acetic acid treatment” value in assay [3] was 100%.
As to `CNC(=O)[C@@H](NC(=O)n1nc(-c2ccc(F)c(F)c2)c2c1CCOC2)C(C)(C)C` [Compound 28, (S)-3-(3,4-difluorophenyl)-N-(3,3-dimethyl-1-(methyl-amino)-1-oxobutan-2-yl)-6,7-dihydropyrano[4,3-c]pyrazole-1(4H)-carboxamide], the concentration for a half-maximal effect (EC50) in assay [1] and in assay [2] was less than 1 µM in each case. Besides, the “reversal of the mechanical hyperalgesia induced by the acetic acid treatment” value in assay [3] is reported as 100%.
